Common to all, as to test: DTP human tumour cell line panel, 48 h
Test [1] has as its system HCT-116 colon.
Test [2] deals with HCT-15 colon.
The subject of test [3] is KM12 colon.
Test [4] deals with LOX IMVI melanoma.
In test [5] the test system is MDA-MB-231 breast.
The test system of test [6] is NCI/ADR-RES ovarian.
The test system of test [7] is OVCAR-8 ovarian.
Test [8] deals with SK-OV-3 ovarian.
The test system of test [9] is U251 CNS.
Test [10] concerns UO-31 renal.

By TGI is commonly meant the concentration at which net growth stops. Low values mean greater sensitivity of the cells, high ones lower sensitivity of the cells.

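Cultured in 96-well plates, cells were exposed to test compound for 48 hours across five concentrations. The concentration for full growth arrest is given as TGI.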

For `COP(=O)(OC)[C@@](O)(c1ccccc1)[C@@H](O)[C@H](O)c1ccccc1`, the TGI in test [1] was above 100 µM; in test [2], above 100 µM; in test [3], above 100 µM; in test [4], 56.4 µM; in [5], above 100 µM; in test [6], above 100 µM. Further, the TGI in test [7], in test [8], in [9] and in [10] was above 100 µM each time.

Consider `CSC(=Nc1ccccc1)c1c(C)[nH]n(-c2ccccc2)c1=O`, for which the TGI in [1], in test [2], in test [3], in test [4], in test [5] and in [6] was above 100 µM throughout. Moreover, the TGI in [7], in [8], in test [9] and in test [10] was above 100 µM throughout.

In the case of `CCOC(=O)c1nc(SC)sc1NC(=O)c1ccc(OC)cc1`, the TGI is 48.2 µM in test [1]; above 100 µM in test [2]; above 100 µM in test [3]; above 100 µM in test [4]; above 100 µM in test [5]; above 100 µM in [6]. Also, the TGI is above 100 µM in test [7], above 100 µM in test [8], 55.4 µM in [9] and above 100 µM in test [10].

As to `CC1=C[C@H](C[C@]2(C)c3c(c4c(C)cccc4oc3=O)O[C@@H]2C)OC1=O`, the TGI in test [1] was 30.3 µM; in test [2], above 100 µM; in test [3], above 100 µM; in [4], above 100 µM; in test [5], above 100 µM; in test [6], above 100 µM. Further, the total growth inhibition concentration (TGI) in test [7], in [8], in test [9] and in [10] was above 100 µM throughout.

Consider `C[C@]12C(=O)OC[C@H](c3ccccc3)N1C(=O)N(Cc1ccccc1)[C@@H]2CO`, for which the TGI in [1], in [2], in test [3], in test [4], in test [5] and in test [6] was above 100 µM each time. Moreover, the concentration for total growth inhibition (TGI) in [7], in [8] and in [10] was above 100 µM throughout.

Regarding `CC(=O)N1N=C(c2ccccc2)NC(=O)C1c1cc(C)c(O)c(C)c1` (stereo not drawn), the TGI in [1] was 54.1 µM; in test [2], above 100 µM; in test [3], above 100 µM; in test [4], above 100 µM; in [5], 46.3 µM; in test [6], 47.7 µM. Further, the TGI in test [7] is 31.4 µM; in [8], 34.3 µM; in test [9], 35 µM; in test [10], 48.9 µM.

On to `O=[N+]([O-])C1=Cc2c(O)ccc(O)c2C2OC=CC12` (stereo not drawn), for which the TGI was 32.1 µM in test [1]; 37 µM in test [2]; 32.5 µM in [3]; 42.6 µM in test [4]; 40.1 µM in [5]; 55.9 µM in test [6]. The TGI in test [7] is above 56.2 µM; in test [8], above 100 µM; in test [9] it was 32.6 µM; in test [10], 29.7 µM.

Take `C/C(=N/NC(=S)N1CCCCCC1)c1cccc(/C(C)=N\NC(=S)N2CCCCCC2)n1`: the TGI in test [1] was 3.48 µM; in [2] it was 5.36 µM; in test [3] it was 3.16 µM; in test [4], 3.41 µM; in test [5], 3.41 µM; in test [6], 3.86 µM. Further, the TGI in [7] was determined as 3.11 µM; in [8] it was 4.1 µM; in test [9], 4.77 µM; in test [10] it was 3.39 µM.

Turning to `Cc1cc2c3c(c1)S(=O)(=O)c1cc(Cl)ccc1N3CCC2`, the TGI in test [1], in [2], in test [3], in test [4], in test [5] and in test [6] was above 100 µM throughout. The TGI in test [7], in test [8] and in test [10] was above 100 µM each time.

Regarding `COc1ccc(C2c3cc4c(cc3OC(N3CCOCC3)C2C)OCO4)cc1OC` (stereo not drawn), the concentration for total growth inhibition (TGI) is 50.8 µM in test [1]; above 100 µM in test [2]; above 100 µM in [3]; above 93.7 µM in test [4]; above 100 µM in test [5]; 25.7 µM in [6]. In addition, the TGI in [7] was above 100 µM; in test [8] it was 87.7 µM; in [9], 29.5 µM; in [10] it was above 100 µM.

Turning to `CCCCOC(=O)Nc1ccc(S(=O)(=O)Nc2c(Cl)cccc2Cl)cc1`, the TGI was 57.5 µM in test [1]; 79.5 µM in test [2]; 99.4 µM in test [3]; above 100 µM in test [4]; 67.2 µM in test [5]; 65.8 µM in [6]. The TGI was 64.6 µM in test [7], 75.3 µM in test [8], above 100 µM in test [9] and 61.5 µM in [10].

Consider `CCCCCCCCCCCCCOCCOCCOCCCCC(O)CCCCCCCCCC1=C[C@H](C)OC1=O` (stereo partly drawn), for which the TGI is 33.4 µM in [1]; 48 µM in test [2]; above 100 µM in test [3]; 42.6 µM in [4]; 50.5 µM in test [5]; 41.4 µM in test [6]. Further, the total growth inhibition concentration (TGI) in [7] is above 100 µM; in test [8], above 100 µM; in [9], 42.2 µM; in test [10] it was 44.4 µM.

Take `Cc1cccc(C)c1NC(=S)N/C=C(\C#N)C(N)=O`: the TGI in [1], in [2], in [3], in [4], in test [5] and in [6] was above 100 µM in each case. Besides, the TGI in [7], in test [8], in test [9] and in test [10] was above 100 µM each time.

(Values after PubChem BioAssay (NCI).)
